# Values quoted from earlier work, collected in patent US20250332127A1, “SYSTEM AND METHOD FOR DELIVERING THERAPEUTIC AGENTS TO THE UTERINE CAVITY” (priority 2021, published 2025).
# Where two headings read alike, the source gives them in different places.
viscosity (at 20 degrees of Celsius),Structure (SMILES),viscosity (trichloroacetic acid as used as therapeutic agent)
0.0147 centipoise,O=C=O [CO2],
,O=C(O)C(Cl)(Cl)Cl [trichloroacetic acid],≥ 1 centipoise
